Results taken from patent US20090060851A1, “USE OF IDEBENONE FOR THE PREPARATION OF A TOPICALLY-APPLIED DEPIGMENTATION COMPOSITION AND CORRESPONDING COMPOSITION” (priority 2005, published 2009).

Key:
Type in all cases: cell-based, human
SK-MEL-28 [1] = test: Melanin content determination (OD400) in SK-MEL cells; details: for OD400 (melanin) / OD400 expressed as percentage of control (melanin): assayed day 5
Method: (§1) In vitro determinations were performed following the method devised by Dooley et al. (Skin Pharmacol. 1994; 7:188-200) in order to evaluate the capacity of idebenone to inhibit melanogenesis, according to the process described below:
(§2) Cells: The study was carried out using a cell line derived from human melanoma, provided by ABAC (Asociación Banco Argentino de Células—Cell Bank of Argentina), with melanin synthesis capability (SK-MEL-28, ATCC origin). The cells were grown in plastic culture bottles or in 24-well plastic dishes in a modified Eagle medium (DMEM) supplemented with 10% fetal bovine serum (FBS) and were maintained at 37° C. in a 5% CO2 atmosphere.
(§3) Study of in vitro compounds: SK-MEL cells detached with trypsin were seeded on plastic 24-well dishes (density of 1×10^5 cells per well) and incubated for 24 hours in modified Eagle medium (DMEM) supplemented with 10% fetal bovine serum (FBS) prior to treating with the compound to be evaluated. After 24 hours have lapsed, the medium was replaced with 990 μl of fresh medium. 10 μl of sterile vehicle (50% propylene glycol, 30% ethanol and 20% distilled water) containing different concentrations of the compounds to be evaluated were added to this fresh medium.
(§4) Decimal dilutions of each compound in the sterile vehicle were prepared in order to obtain final concentrations of the compound to be studied ranging between 1.000 and 0.01 μg/ml. […]
[…] The cells were thus continuously exposed to the compounds under study for the 5 days the culture lasted. All the concentrations of the compounds were studied in triplicate, comparing the mean of the 3 wells treated with the compounds with those treated with the vehicle alone.
(§5) Melanin content determination: The SK-MEL cell melanin content was determined after stirring the culture medium and washing the cells with PBS. The cells were then lysated by means of adding 1 ml of 1N NaOH to each well and repeated manual pipetting. The raw cell extract was analyzed using a spectrophotometer at 400 and 475 nm to determine the melanin and dopaquinone content, respectively. The results were expressed as a percentage of the cell cultures treated with the vehicle.

SK-MEL-28 [2] = test: Dopaquinone content determination (OD475) in SK-MEL cells; details: assayed day 5
Method: as §1, §2, §3, §4
[…] […] All the concentrations of the compounds were studied in triplicate, comparing the mean of the 3 wells treated with the compounds with those treated with the vehicle alone.
as §5

SK-MEL-28 [3] = test: Cell number quantitation with violet crystal
Method: Cells: The study was carried out using a cell line derived from human melanoma, provided by ABAC (Asociación Banco Argentino de Células—Cell Bank of Argentina), with melanin synthesis capability (SK-MEL-28, ATCC origin). […] Study of in vitro compounds: […] After 24 hours have lapsed, the medium was replaced with 990 μl of fresh medium. 10 μl of sterile vehicle (50% propylene glycol, 30% ethanol and 20% distilled water) containing different concentrations of the compounds to be evaluated were added to this fresh medium. […] On the fourth day, the cells were not treated, and the remaining adherent cells were assayed on the fifth day according to the methods described below. The cells were thus continuously exposed to the compounds under study for the 5 days the culture lasted. All the concentrations of the compounds were studied in triplicate, comparing the mean of the 3 wells treated with the compounds with those treated with the vehicle alone. Cell number quantitation with violet crystal: A stain with a violet crystal aqueous solution was used for the purpose of determining the number of cells adhering to the plastic surviving in vitro treatment by means of indirect methods. […] The dishes were stained for 5 minutes at room temperature on a rotary platform, with gentle stirring. Then the excess colorant was decanted by turning the dish over and the entire dish was submerged 4 times in distilled water in a suitable container. After rinsing, the dishes were turned over and allowed to drip on absorbent paper until the excess water was completely removed. […] The plates were finally placed on a rotary agitator for 30 minutes at room temperature. […] In order to determine the fraction of cells surviving treatment at a specific concentration of the experimental agent, the OD590 of the treated wells (average of three measurements) was divided by the OD590 of the wells used with a control vehicle (average of three measurements).

[4] = dilution −1, treated daily 3 days
[5] = dilution −2, treated daily 3 days
[6] = dilution −3, treated daily 3 days
[7] = dilution −4, treated daily 3 days
[8] = dilution −5, treated daily 3 days

Compound: Oc1ccc(O)cc1 [hydroquinone, 1,4-benzenediol]
- Melanin synthesis inhibition (SK-MEL-28 [1]; SK-MEL-28, Example 5): stops being effective
- OD400 (melanin) (SK-MEL-28 [1]; [4]): 0.007
- OD400 expressed as percentage of control (melanin) (SK-MEL-28 [1]; [4]): 21%
- OD400 (melanin) (SK-MEL-28 [1]; [5]): 0.012
- OD400 expressed as percentage of control (melanin) (SK-MEL-28 [1]; [5]): 36%
- OD400 (melanin) (SK-MEL-28 [1]; [6]): 0.021
- OD400 expressed as percentage of control (melanin) (SK-MEL-28 [1]; [6]): 64%
- OD400 (melanin) (SK-MEL-28 [1]; [7]): 0.036
- OD400 expressed as percentage of control (melanin) (SK-MEL-28 [1]; [7]): 109%
- OD400 (melanin) (SK-MEL-28 [1]; [8]): 0.034
- OD400 expressed as percentage of control (melanin) (SK-MEL-28 [1]; [8]): 103%
- OD475 (dopaquinone) (SK-MEL-28 [2]; [4]): 0.0001
- OD475 expressed as percentage of control (dopaquinone) (SK-MEL-28 [2]; [4]): 0%
- OD475 (dopaquinone) (SK-MEL-28 [2]; [5]): 0.0013
- OD475 expressed as percentage of control (dopaquinone) (SK-MEL-28 [2]; [5]): 8%
- OD475 (dopaquinone) (SK-MEL-28 [2]; [6]): 0.0083
- OD475 expressed as percentage of control (dopaquinone) (SK-MEL-28 [2]; [6]): 51%
- OD475 (dopaquinone) (SK-MEL-28 [2]; [7]): 0.0163
- OD475 expressed as percentage of control (dopaquinone) (SK-MEL-28 [2]; [7]): 100%
- OD475 (dopaquinone) (SK-MEL-28 [2]; [8]): 0.0163
- OD475 expressed as percentage of control (dopaquinone) (SK-MEL-28 [2]; [8]): 100%
- Toxicity for cells (SK-MEL-28 [3]; SK-MEL-28, high concentrations): toxicity for hydroquinone was higher
- Percentage of viable cells (SK-MEL-28 [3]; dilution −1, percentage of control vehicle): 34%
- Percentage of viable cells (SK-MEL-28 [3]; dilution −2, percentage of control vehicle): 58%
- Percentage of viable cells (SK-MEL-28 [3]; dilution −3, percentage of control vehicle): 77%
- Percentage of viable cells (SK-MEL-28 [3]; dilution −4, percentage of control vehicle): 89%
- Percentage of viable cells (SK-MEL-28 [3]; dilution −5, percentage of control vehicle): 95%
